Data taken from PMC5890689 (RSC Advances, 2018).
Entries after “also recorded” stand apart in the source; their conditions may differ. Read-outs that look alike come from different tables or passages of the source.

Experiments:
[1] = biological target: CDK2/cyclin A (Homo sapiens, UniProt P24941); test: CDK2/cyclin A kinase assay; type: biochemical
[2] = tested on: MDA-MB-231 (human breast carcinoma cell line); test: SRB assay, MDA-MB-231; details: MDA-MB-231, 72 h, read-out: GI50 MDA-MB-231
[3] = tested on: MCF-7 (Michigan Cancer Foundation-7); test: SRB assay, MCF-7; details: Homo sapiens, MCF7, 72 h, read-out: GI50 MCF-7
[4] = tested on: KB (nasopharyngeal carcinoma); test: SRB assay, KB; details: for GI50: Homo sapiens, 72 h, read-out: GI50 KB
[5] = tested on: A549 (lung cancer); test: SRB assay, A549; details: Homo sapiens, A549, 72 h, read-out: GI50 A549
[6] = biological target: CDK9/cyclin T1 (Homo sapiens, UniProt P50750); test: CDK9/cyclin T1 kinase assay; type: biochemical
[7] = tested on: MDA-MB-231 cells; test: Cell cycle analysis by flow cytometry; type: cell-based, human; details: 24 h, five-fold GI50 (2a 6.0 μM, 2d 8.0 μM, 3b 10.5 μM)
[8] = tested on: A549 (lung cancer); details: read-out: GI50 A549; SRB assay; cited from earlier work
[9] = tested on: KB-vin (vincristine-resistant KB subline); details: SRB assay; cited from earlier work
[10] = tested on: KB (nasopharyngeal carcinoma); details: SRB assay; cited from earlier work
[11] = tested on: KB-vin (vincristine-resistant KB subline); test: SRB assay, KB-vin; details: 3 days, mean ± SD of three

Sequence of CDK9/cyclin T1 (P50750 whole entry): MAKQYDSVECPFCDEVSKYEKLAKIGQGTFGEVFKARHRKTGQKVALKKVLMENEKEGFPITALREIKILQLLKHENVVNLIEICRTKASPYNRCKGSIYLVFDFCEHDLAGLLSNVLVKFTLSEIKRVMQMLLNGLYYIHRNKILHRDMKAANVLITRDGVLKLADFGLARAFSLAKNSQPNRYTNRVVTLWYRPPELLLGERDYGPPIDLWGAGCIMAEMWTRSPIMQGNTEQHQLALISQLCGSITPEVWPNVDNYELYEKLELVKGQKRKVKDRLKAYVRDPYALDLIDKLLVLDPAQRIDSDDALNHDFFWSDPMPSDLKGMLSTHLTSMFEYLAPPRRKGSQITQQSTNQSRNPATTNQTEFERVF
Sequence of CDK9/cyclin T1 (O60563 whole entry partner): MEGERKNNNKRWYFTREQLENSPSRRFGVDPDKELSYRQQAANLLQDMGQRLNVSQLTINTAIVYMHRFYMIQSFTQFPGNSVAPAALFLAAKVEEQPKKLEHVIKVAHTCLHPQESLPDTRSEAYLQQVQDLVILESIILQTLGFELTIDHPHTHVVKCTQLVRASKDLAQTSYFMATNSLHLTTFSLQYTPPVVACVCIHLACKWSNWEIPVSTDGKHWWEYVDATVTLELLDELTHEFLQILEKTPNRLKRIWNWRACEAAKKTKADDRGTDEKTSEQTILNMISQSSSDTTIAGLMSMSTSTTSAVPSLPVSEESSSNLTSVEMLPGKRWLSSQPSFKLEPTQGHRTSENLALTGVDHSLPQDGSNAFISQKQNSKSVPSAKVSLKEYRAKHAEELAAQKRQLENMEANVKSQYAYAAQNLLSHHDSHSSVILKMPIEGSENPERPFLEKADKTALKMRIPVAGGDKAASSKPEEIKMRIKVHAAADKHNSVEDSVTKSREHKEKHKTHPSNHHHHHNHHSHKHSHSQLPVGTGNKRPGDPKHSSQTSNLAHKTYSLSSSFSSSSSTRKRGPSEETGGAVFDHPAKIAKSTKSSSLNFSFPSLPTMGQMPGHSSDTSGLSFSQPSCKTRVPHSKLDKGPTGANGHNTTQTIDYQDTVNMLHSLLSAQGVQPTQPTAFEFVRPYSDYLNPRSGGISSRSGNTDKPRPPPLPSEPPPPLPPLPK

| SMILES | IC50 [1] | GI50 [2] | GI50 [3] | GI50 [4] | GI50 [5] | IC50 [6] | subtype selectivity for CDK9 over CDK2 ([6]; ratio of IC50 CDK2/cyclin A to CDK9/cyclin T1) | GI50 KB-vin [11] | GI50 KB ([4]; SRB assay, 3 days, mean ± SD of three) | Effect on cell cycle progression [7] | GI50 [8] | GI50 KB-vin [9] | GI50 KB [10] |
| --- | --- | --- | --- | --- | --- | --- | --- | --- | --- | --- | --- | --- | --- |
| CN(C)CCNC(=O)c1cccc(Nc2ncc(F)c(Nc3c(F)cccc3F)n2)c1 [3e, 3-((4-((2,6-Difluorophenyl)amino)-5-fluoropyrimidin-2-yl)amino)-N-(2-(dimethylamino)ethyl)benzamide] | 750 ± 140 nM | 5420 ± 350 nM | 6730 ± 230 nM | 3820 ± 110 nM | 720 ± 10 nM | 230 ± 10 nM |  |  |  |  |  |  |  |
| CC(C)(C)NCC(=O)Nc1cccc(Nc2ncc(F)c(Nc3c(F)cccc3F)n2)c1 [3b, 2-(tert-Butylamino)-N-(3-((4-((2,6-difluorophenyl)amino)-5-fluoropyrimidin-2-yl)amino)phenyl)acetamide] | 380 ± 60 nM | 2070 ± 120 nM | 2730 ± 480 nM | 3270 ± 130 nM | 1310 ± 180 nM | 80 ± 1 nM |  |  |  | induced cell cycle arrest in G2/M phase; also recorded: induced cell cycle arrest at G2/M |  |  |  |
| CN1CC[C@H](c2c(O)cc(O)c3c(=O)cc(-c4ccccc4Cl)oc23)[C@H](O)C1 [FVP, Flavopiridol] |  |  |  |  |  |  |  |  |  |  | 140 ± 10 nM | 180 ± 10 nM | 160 ± 10 nM |
| CN1CCN(c2cccc(Nc3ncc(F)c(Nc4c(F)cccc4F)n3)c2)CC1 [3m, N ^4-(2,6-Difluorophenyl)-5-fluoro-N^2-(3-(4-methylpiperazin-1-yl)phenyl) pyrimidine-2,4-diamine] | 470 ± 40 nM | 2840 ± 670 nM | 7760 ± 520 nM | 400 ± 90 nM | 1250 ± 80 nM | 290 ± 2 nM |  |  |  |  |  |  |  |
| Cc1ccc(Nc2ncc(F)c(Nc3c(F)cccc3F)n2)cc1N1CCOCC1 [3o, N ^4-(2,6-difluorophenyl)-5-fluoro-N^2-(4-methyl-3-morpholinophenyl)pyrimidine-2,4-diamine] | 5600 ± 30 nM | 7000 ± 60 nM | 3750 ± 280 nM | 980 ± 50 nM | 850 ± 10 nM | 740 ± 40 nM | 7.5 fold |  |  |  |  |  |  |
| CN1CCC(C(=O)Nc2cccc(Nc3ncc(F)c(Nc4c(F)cccc4F)n3)c2)CC1 [3d, N-(3-((4-((2,6-Difluorophenyl)amino)-5-fluoropyrimidin-2-yl)amino)phenyl)-1-methylpiperidine-4-carboxamide] | 130 ± 20 nM | 3300 ± 230 nM | 6160 ± 140 nM | 2600 ± 450 nM | 1090 ± 30 nM | 660 ± 20 nM |  |  |  |  |  |  |  |
| CC(C)CC(=O)Nc1cccc(Nc2ncc(F)c(Nc3c(F)cccc3F)n2)c1 [3a, N-(3-((4-((2,6-Difluorophenyl)amino)-5-fluoropyrimidin-2-yl)amino)phenyl)-3-methylbutanamide] | 1100 ± 150 nM | > 10000 nM | 5970 ± 190 nM | 590 ± 50 nM | 720 ± 40 nM | 480 ± 220 nM |  |  |  |  |  |  |  |
| CC(=O)O[C@H]1C(=O)[C@@]2(C)[C@H]([C@H](OC(=O)c3ccccc3)[C@]3(O)C[C@H](OC(=O)[C@H](O)[C@@H](NC(=O)c4ccccc4)c4ccccc4)C(C)=C1C3(C)C)[C@]1(OC(C)=O)CO[C@@H]1C[C@@H]2O [Paclitaxel, reference compound] |  | 7.76 ± 0.39 nM | 8.78 ± 0.79 nM |  | 5.98 ± 0.4 nM |  |  | 1518.36 ± 141.54 nM | 4.94 ± 0.21 nM |  |  |  |  |
| CN1CCCN(c2cccc(Nc3ncc(F)c(Nc4c(F)cccc4F)n3)c2)CC1 [3n, N ^4-(2,6-Difluorophenyl)-5-fluoro-N^2-(3-(4-methyl-1,4-diazepan-1-yl)phenyl) pyrimidine-2,4-diamine] | 950 ± 270 nM | 4770 ± 270 nM | 7160 ± 540 nM | 4440 ± 420 nM | 710 ± 10 nM | 1600 ± 100 nM |  |  |  |  |  |  |  |
| CN(C)CC(=O)Nc1cccc(Nc2ncc(F)c(NN3CCN(C)CC3)n2)c1 [2h, 2-(Dimethylamino)-N-(3-((5-fluoro-4-((4-methylpiperazin-1-yl)amino)pyrimidin-2-yl)amino)phenyl)acetamide] | 5600 ± 530 nM | > 10000 nM | > 10000 nM | > 10000 nM | > 10000 nM | 2200 ± 320 nM |  |  |  |  |  |  |  |
| COc1ccc(Nc2ncc(F)c(Nc3c(F)cccc3F)n2)cc1NC(=O)CN(C)C [3i, N-(5-((4-((2,6-Difluorophenyl)amino)-5-fluoropyrimidin-2-yl)amino)-2-methoxyphenyl)-2-(dimethylamino)acetamide] |  | 4050 ± 140 nM | 1880 ± 120 nM | 2870 ± 240 nM | 700 ± 2 nM |  |  |  |  |  |  |  |  |

Now from value to compound, other results behind:

| IC50 [1] | GI50 [2] | GI50 [3] | GI50 [4] | GI50 [5] | IC50 [6] | subtype selectivity for CDK9 over CDK2 ([6]; ratio of IC50 CDK2/cyclin A to CDK9/cyclin T1) | GI50 KB-vin [11] | GI50 KB ([4]; SRB assay, 3 days, mean ± SD of three) | SMILES | Effect on cell cycle progression [7] | GI50 [8] | GI50 KB-vin [9] | GI50 KB [10] |
| --- | --- | --- | --- | --- | --- | --- | --- | --- | --- | --- | --- | --- | --- |
| 780 ± 40 nM | 5800 ± 80 nM | 3800 ± 240 nM | 2200 ± 370 nM | 2330 ± 30 nM | 390 ± 80 nM |  |  |  | CC(=O)c1ccc(Nc2nc(Nc3cccc(NC(=O)CN(C)C)c3)ncc2F)cc1 [2b, N-(3-((4-((4-Acetylphenyl)amino)-5-fluoropyrimidin-2-yl)amino)phenyl)-2-(dimethylamino)acetamide] |  |  |  |  |
|  | 6010 ± 80 nM | 4480 ± 390 nM | 3800 ± 340 nM | 3040 ± 180 nM |  |  |  |  | CN(C)CC(=O)Nc1ccc(Nc2ncc(F)c(Nc3c(F)cccc3F)n2)cc1 [3k, N-(4-((4-((2,6-Difluorophenyl)amino)-5-fluoropyrimidin-2-yl)amino)phenyl)-2-(dimethylamino)acetamide] |  |  |  |  |
| 1600 ± 110 nM | 13000 ± 380 nM | 6020 ± 510 nM | 7040 ± 80 nM | 3470 ± 440 nM | 570 ± 120 nM |  |  |  | CN(C)CC(=O)Nc1cccc(Nc2ncc(F)c(Nc3c(Cl)cccc3Cl)n2)c1 [2f, N-(3-((4-((2,6-Dichlorophenyl)amino)-5-fluoropyrimidin-2-yl)amino)phenyl)-2-(dimethylamino)acetamide] |  |  |  |  |
| 300 ± 70 nM | 3240 ± 50 nM | 2650 ± 400 nM | 2310 ± 110 nM | 1200 ± 50 nM | 65 ± 23 nM |  |  |  | CN(C)CCC(=O)Nc1cccc(Nc2ncc(F)c(Nc3c(F)cccc3F)n2)c1 [3c, N-(3-((4-((2,6-Difluorophenyl)amino)-5-fluoropyrimidin-2-yl)amino)phenyl)-3-(dimethylamino)propanamide] |  |  |  |  |
| 940 ± 430 nM | 1640 ± 150 nM | 2830 ± 30 nM | 3080 ± 160 nM | 1890 ± 190 nM | 320 ± 50 nM |  |  |  | CN(C)CC(=O)Nc1cccc(Nc2ncc(F)c(Nc3ccc(N(C)C)cc3)n2)c1 [2d, 2-(Dimethylamino)-N-(3-((4-((4-(dimethylamino)phenyl)amino)-5-fluoropyrimidin-2-yl)amino)phenyl)acetamide] | induced cell cycle arrest in G2/M phase; also recorded: induced cell cycle arrest at G2/M |  |  |  |
| 570 ± 50 nM | 4640 ± 60 nM | 670 ± 30 nM | 560 ± 80 nM | 710 ± 60 nM | 490 ± 270 nM |  |  |  | CN(C)CC(=O)Nc1cccc(Nc2ncc(F)c(Nc3cc(F)cc(F)c3)n2)c1 [2g, N-(3-((4-((3,5-Difluorophenyl)amino)-5-fluoropyrimidin-2-yl)amino)phenyl)-2-(dimethylamino)acetamide] |  |  |  |  |
| 320 ± 280 nM | 1200 ± 60 nM | 670 ± 60 nM | 570 ± 10 nM | 720 ± 10 nM | 300 ± 10 nM |  |  |  | COc1ccc(Nc2nc(Nc3cccc(NC(=O)CN(C)C)c3)ncc2F)cc1 [2a, 2-(Dimethylamino)-N-(3-((5-fluoro-4-((4-methoxyphenyl)amino)pyrimidin-2-yl)amino)phenyl)acetamide] | induced cell cycle arrest in G2/M phase; also recorded: induced cell cycle arrest at G2/M |  |  |  |
|  | 5310 ± 190 nM | 2370 ± 620 nM | 600 ± 40 nM | 1150 ± 80 nM |  |  |  |  | Cc1ccc(Nc2ncc(F)c(Nc3c(F)cccc3F)n2)cc1NC(=O)CN(C)C [3j, N-(5-((4-((2,6-Difluorophenyl)amino)-5-fluoropyrimidin-2-yl)amino)-2-methylphenyl)-2-(dimethylamino)acetamide] |  |  |  |  |
| 780 ± 120 nM | 5940 ± 330 nM | 10230 ± 30 nM | 5730 ± 350 nM | 4900 ± 450 nM | 480 ± 80 nM |  |  |  | CN(C)CC(=O)Nc1cccc(Nc2ncc([N+](=O)[O-])c(Nc3c(F)cccc3F)n2)c1 [2i, N-(3-((4-((2,6-Difluorophenyl)amino)-5-nitropyrimidin-2-yl)amino)phenyl)-2-(dimethylamino)acetamide] |  |  |  |  |
|  | 3980 ± 160 nM | 4490 ± 30 nM | 4780 ± 380 nM | 1310 ± 70 nM |  |  |  |  | CN(C)CC(=O)Nc1cccc(Nc2ncc(F)c(Nc3c(F)cccc3F)n2)c1 [2e, N-(3-((4-((2,6-Difluorophenyl)amino)-5-fluoropyrimidin-2-yl)amino)phenyl)-2-(dimethylamino)acetamide] |  |  |  |  |
| 910 ± 110 nM | 6770 ± 380 nM | 3940 ± 310 nM | 2030 ± 320 nM | 2120 ± 260 nM | 1100 ± 20 nM |  |  |  | CN(C)CC(=O)Nc1cccc(Nc2ncc(F)c(Nc3ccc(Cl)cc3)n2)c1 [2c, N-(3-((4-((4-Chlorophenyl)amino)-5-fluoropyrimidin-2-yl)amino)phenyl)-2-(dimethylamino)acetamide] |  |  |  |  |
